{
  "source": "patent EP1009418B1",
  "about": "“ROBINIA PSEUDOACACIA LECTIN AND ITS USES” (priority 1997, dated 1999)",
  "key": {"[1]": {"test_system": "small intestine, jejunum and ileum", "assay": "Protection of rats from high-dose 5-FU by oral pre-dosing with A4 or B4 homotetramer lectin: gut dry weights and visual inspection", "assay_type": "in vivo, Hooded Lister (Rowett Strain) rats", "experimental": "(§1) Thirty five young male Hooded Lister (Rowett Strain) rats (19 days old weighing 30-40g) were housed individually in grid bottom cages. The animals were fed a high quality semi-synthetic diet containing 10% lactalbumin protein (Table 1).\n(§2) Diet and water was freely available at all times except on day 19 when the amount of food offered was restricted to 10g/rat. At 19 days, rat weights were 100-104g.\n(§3) Animals not pre-dosed with RPA were administered with 1 ml 0.9% saline by gavage.\n(§4) 300mg of 5-fluorouracil was stirred in 14ml of distilled water. 1M NaOH was added slowly until the 5-FU had dissolved. The solution was made up to a final volume of 20 ml. The final pH of the solution was 8.3. A dose of 150 mg/kg body weight was administered to the animal by intraperitoneal injection. Immediately after the injection, the rats were offered 15g of the control diet.\nFive groups, each consisting of 5 rats were fed on a standard diet containing lactalbumin (Table 1) and were fed on the following dietary regime (Table 4); Table 4.\nOne group of animals (Treatment 1) were fed standard diet throughout. The second group were gavaged daily with saline for three days and then injected with 5-FU at 150 mg/kg body weight (Treatment 2). The remaining two groups (Treatment 3 & 4) of animals were gavaged daily for three days with either A4 or B4 RPA homotetramer for three days and then injected with 150 mg/kg body weight 5-FU. After injection with 5-FU, Treatment groups 2-4 were returned to standard diet for four days ad lib. The animals were sacrificed 7 days after the start of the experiment, the carcass dissected and the small intestine, jejunum and ileum dry weights recorded.\nDry weights normalised to 100g dry body weight."}, "[2]": {"test_system": "small intestine, jejunum and ileum", "assay": "Protection of rats from high-dose 5-FU by oral pre-dosing with RPA: gut wet weights and visual inspection", "assay_type": "in vivo, Hooded Lister (Rowett Strain) rats", "experimental": "as §1, §2\nAnimals pre-dosed with RPA were given the equivalent of 25, 50 or 100 mg/kg body weight RPA (Table 2) in 0.9% saline by gavage. The animals were pre-dosed for three consecutive days prior to the 5-FU injection.\nas §3, §4\nFive groups, each consisting of 5 rats were fed on the standard diet containing lactalbumin (Table 1). One group of rats were fed 8 g per day of standard diet for three days and then injected with 5-FU at 150 mg/kg body weight (Table 2).\nThe rats were pair fed for the first three days and then fed ab libitum post 5-FU injection.\nThree groups of animals were gavaged daily with 25, 50 or 100 mg/kg/day body weight Robinia pseudoacacia lectin (RPA) for three days and then injected with 150 mg/kg 5-FU on the following day. The remaining group of animals were pre-dosed with 100 mg/kg body weight RPA and then returned to lactalbumin containing diet without injection of 5-FU. After injection with 5-FU, the animals were returned to lactalbumin containing diet ad lib. The animals were sacrificed 7 days after the start of the experiment, the carcass dissected and the small intestine, jejunum and ileum wet weights recorded."}, "[3]": {"conditions": "dry weight normalised to 100g dry body weight, saline gavage 3d, 5-FU 150 mg/kg, no lectin"}, "[4]": {"conditions": "wet weight, lactalbumin diet 3d, 5-FU 150 mg/kg i.p., no RPA"}},
  "data": [
    {"smiles": "O=c1[nH]cc(F)c(=O)[nH]1", "note": "[5-FU, 5-fluorouracil]", "values": [
      {"measurement": "tissue dry weight versus the untreated control", "setting": "[1]; 5-FU 150 mg/kg (treatments 1 & 2)", "value": "significant reduction in tissue dry weight"},
      {"measurement": "Visual inspection of the small intestine, jejunum and ileum", "setting": "[1]; 5-FU alone", "value": "extensively damaged mucosal"},
      {"measurement": "Ileum", "setting": "[1]; [3]", "value": 405, "unit": "mg"},
      {"measurement": "Jejunum", "setting": "[1]; [3]", "value": 336, "unit": "mg"},
      {"measurement": "Small intestine", "setting": "[1]; [3]", "value": 1789, "unit": "mg"},
      {"measurement": "Visual inspection of the small intestine, jejunum and ileum", "setting": "[2]; 5-FU alone (treatment 1)", "value": "no, or a very thin mucosal layer"},
      {"measurement": "Ileum", "setting": "[2]; [4]", "value": 1.0, "unit": "g"},
      {"measurement": "Jejunum", "setting": "[2]; [4]", "value": 1.0, "unit": "g"},
      {"measurement": "Small intestine", "setting": "[2]; [4]", "value": 5.62, "unit": "g"}
    ]}
  ]
}
